Results from patent publication US10918742B2, “Iodine-based particles” (Nanoprobes, Inc., priority 2016, dated 2021).

Experiments:
[1] = mice, acute dose; cited from earlier work
[2] = microCT comparison with commercially available agent (kidney, lung); type: in vivo, mouse
Protocol: A mouse was injected with a standard iodine contrast agent at an effective dose of 2.5 g iodine/kg.
A mouse was injected with a standard iodine contrast agent at an effective dose of 1.75 g iodine/kg.

For `CC(=O)N(CC(O)CO)c1c(I)c(C(=O)NCC(O)CO)c(I)c(C(=O)NCC(O)CO)c1I` (stereo not drawn) [Iohexol, 5-(N-2,3-Dihydroxypropylacetamido)-2,4,6-triiodo-N,N′-bis(2,3-dihydroxypropyl)isophthalamide], the “intravenous LD50” value [1] is given as 24.2 g iodine/kg, the “microCT of lung region” value ([2]; 30 minutes after injection, 1.75 g iodine/kg) is given as “no clear visualization of any vasculature” and the “microCT of kidney region” value ([2]; two minutes after injection, Example 1 at 1.75 g iodine/kg, standard agent at 2.5 g iodine/kg) is given as “the iodine has rapidly entered the kidneys and is being quickly removed from the blood”.
